These results are taken from ChEMBL document CHEMBL5620385, “Orally bioavailable styryl derivative of rohitukine-N-oxide inhibits CDK9/T1 and the growth of pancreatic cancer cells” (Eur J Med Chem, 2023).

For series [1], the system named is MIA PaCa-2. In words: Antiproliferative activity against human MIA PaCa-2 cells assessed as cell growth inhibition at 10 uM incubated for 48 hrs by MTT assay relative to control. The class given is functional. In general terms: Formazan colour is commonly taken as a measure of viable cells.
Series [2] can be described thus: Antiproliferative activity against HEK293 cells assessed as cell growth inhibition incubated for 48 hrs by MTT assay. The class given is toxicity, cell-based. The conditions noted are these: human.
The test system of series [3] is MIA PaCa-2. In words: Antiproliferative activity against human MIA PaCa-2 cells assessed as cell growth inhibition incubated for 48 hrs by MTT assay. Format: functional.
For series [4], the system named is HCT-116. In words: Antiproliferative activity against human HCT-116 cells assessed as cell growth inhibition at 10 uM incubated for 48 hrs by MTT assay relative to control. The class given is functional.
The target in the next series is CDK9/cyclin T1 (Homo sapiens, UniProt P50750). In words: Inhibition of CDK9/cyclin T1 (unknown origin) by ADP-Glo assay. The class given is protein-complex assay.
Chain of CDK9/cyclin T1 (O60563 whole entry): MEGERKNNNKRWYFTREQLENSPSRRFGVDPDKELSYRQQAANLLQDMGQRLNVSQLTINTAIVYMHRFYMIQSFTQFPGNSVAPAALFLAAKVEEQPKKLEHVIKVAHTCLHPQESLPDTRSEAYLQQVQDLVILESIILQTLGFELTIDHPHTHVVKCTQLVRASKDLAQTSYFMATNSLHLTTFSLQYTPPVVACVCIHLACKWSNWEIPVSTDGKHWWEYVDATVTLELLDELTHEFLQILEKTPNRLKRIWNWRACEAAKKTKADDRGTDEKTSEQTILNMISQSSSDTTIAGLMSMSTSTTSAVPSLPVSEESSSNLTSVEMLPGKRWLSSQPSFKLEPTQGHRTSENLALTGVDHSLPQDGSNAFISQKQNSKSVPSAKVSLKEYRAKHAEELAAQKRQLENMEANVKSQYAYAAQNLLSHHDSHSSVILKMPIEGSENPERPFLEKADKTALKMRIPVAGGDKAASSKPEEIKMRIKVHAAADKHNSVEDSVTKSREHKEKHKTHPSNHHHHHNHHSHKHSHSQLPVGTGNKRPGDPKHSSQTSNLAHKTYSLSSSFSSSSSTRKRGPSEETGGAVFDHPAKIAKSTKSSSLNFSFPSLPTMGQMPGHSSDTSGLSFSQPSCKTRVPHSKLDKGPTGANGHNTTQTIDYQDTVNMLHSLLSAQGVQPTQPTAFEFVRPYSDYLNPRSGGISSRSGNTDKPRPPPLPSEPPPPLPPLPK
Chain of CDK9/cyclin T1 (P50750 whole entry): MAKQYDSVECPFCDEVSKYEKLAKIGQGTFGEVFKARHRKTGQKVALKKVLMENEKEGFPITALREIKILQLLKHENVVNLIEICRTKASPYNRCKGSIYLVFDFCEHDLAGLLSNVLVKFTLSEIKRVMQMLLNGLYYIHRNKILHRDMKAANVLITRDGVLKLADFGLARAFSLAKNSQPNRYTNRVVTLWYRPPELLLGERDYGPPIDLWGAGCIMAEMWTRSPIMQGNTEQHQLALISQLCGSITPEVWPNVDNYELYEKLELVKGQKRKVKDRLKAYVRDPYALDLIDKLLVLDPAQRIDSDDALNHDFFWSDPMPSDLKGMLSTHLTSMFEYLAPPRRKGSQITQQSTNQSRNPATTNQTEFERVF
Series [5] addresses Cyclin-dependent kinase 7/ cyclin H (Homo sapiens) (UniProt P51946+P50613). In words: Inhibition of CDK7/cyclin H (unknown origin) at 10 uM by ADP-Glo assay relative to control. The class given is protein-complex assay. (ADP-Glo turns the ADP formed in a reaction into a luminescent signal.)
In series [6] the target is Cyclin-dependent kinase 7/ cyclin H (Homo sapiens, UniProt P50613). In words: Inhibition of CDK7/cyclin H (unknown origin) by ADP-Glo assay. The class given is protein-complex assay.
Chain of Cyclin-dependent kinase 7/ cyclin H (P51946 whole entry): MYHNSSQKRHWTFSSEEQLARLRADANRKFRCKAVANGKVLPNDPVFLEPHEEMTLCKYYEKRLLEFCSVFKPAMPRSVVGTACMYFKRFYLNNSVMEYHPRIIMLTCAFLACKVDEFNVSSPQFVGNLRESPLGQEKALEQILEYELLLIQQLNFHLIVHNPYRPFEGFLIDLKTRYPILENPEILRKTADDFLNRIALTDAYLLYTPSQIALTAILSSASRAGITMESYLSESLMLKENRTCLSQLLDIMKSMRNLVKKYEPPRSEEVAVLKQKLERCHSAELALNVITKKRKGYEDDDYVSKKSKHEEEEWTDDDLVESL
Chain of Cyclin-dependent kinase 7/ cyclin H (P50613 whole entry): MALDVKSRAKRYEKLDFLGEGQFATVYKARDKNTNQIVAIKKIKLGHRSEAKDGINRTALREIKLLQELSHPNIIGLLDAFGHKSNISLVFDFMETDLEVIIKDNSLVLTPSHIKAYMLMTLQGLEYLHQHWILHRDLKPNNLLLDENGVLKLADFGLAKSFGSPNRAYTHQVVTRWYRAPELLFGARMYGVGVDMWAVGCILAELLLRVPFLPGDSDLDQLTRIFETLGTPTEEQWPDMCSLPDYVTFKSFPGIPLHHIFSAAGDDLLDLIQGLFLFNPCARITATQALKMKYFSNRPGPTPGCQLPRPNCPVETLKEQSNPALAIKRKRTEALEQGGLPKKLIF
Series [7] in a line: Antiproliferative activity against HEK293 cells assessed as cell growth inhibition at 10 uM incubated for 48 hrs by MTT assay relative to control. The class given is toxicity, cell-based. As to conditions: human.
For series [8], the system named is HCT-116. In words: Antiproliferative activity against human HCT-116 cells assessed as cell growth inhibition incubated for 48 hrs by MTT assay. The class given is functional.
Series [9] concerns the target CDK9/Cyclin K (Homo sapiens) (UniProt P50750+O75909). In words: Inhibition of CDK9/cyclin K (unknown origin) at 10 uM by ADP-Glo assay relative to control. Format: protein-complex assay.

In general, inhibition refers to the drop in the measured response relative to a control, in per cent. The GI50 is the concentration at which growth is held to half of that of the control. As a reminder, the IC50 is the concentration that inhibits the measured activity by half. With `CCOc1cc(O)c2c(=O)cc(/C=C/c3c(F)cccc3Cl)oc2c1[C@H]1CC[N+](C)([O-])C[C@H]1O` (stereo partly drawn), the inhibition at 10 µM in the series on MIA PaCa-2 [1] worked out at 52.8%; in the series on HCT-116 [4], 34.7%. Besides, the concentration for 50% growth inhibition (GI50) at 48 h in series [2] was > 100 µM. For the same compound, the results for the GI50 in the series on MIA PaCa-2 [3] and in the series on HCT-116 [8] were 8.03 µM and > 10 µM, respectively. The IC50 was 0.45 µM at CDK9/cyclin T1 and > 10 µM in [6]. In [5], this compound came in with an inhibition of 37.4%. Moreover, the inhibition at 48 h, 10 µM in [7] turned out to be 22.8%.

Turning to `C[N+]1([O-])CC[C@H](c2c(O)cc(O)c3c(=O)cc(/C=C/c4ccc(Cl)cc4Br)oc23)[C@H](O)C1` (stereo partly drawn), the inhibition at 10 µM with MIA PaCa-2 [1] was 58.4%; with HCT-116 [4], 57.1%. The inhibition amounted to 65.4% in series [5] and 66.2% in series [9]. In addition, in series [7], the inhibition at 48 h, 10 µM was determined as 21.4%.

As to `COc1cc(O)c2c(=O)cc(/C=C/c3ccc(F)c(Cl)c3)oc2c1[C@H]1CC[N+](C)([O-])C[C@H]1O` (stereo partly drawn), the inhibition at 10 µM stood at 27.8% with MIA PaCa-2 [1] and 33.7% in the series with HCT-116 [4]. Further, the inhibition in series [5] was 56.7%; in series [9], 28.4%. For the same compound, the inhibition at 48 h, 10 µM in series [7] was 6.9%.

With `C[N+]1([O-])CC[C@H](c2c(O)cc(O)c3c(=O)cc(/C=C/c4ccccc4I)oc23)[C@H](O)C1` (stereo partly drawn), the inhibition at 10 µM came to 38.1% in the series on MIA PaCa-2 [1] and 38.3% in the series with HCT-116 [4]. Besides, the inhibition in series [5] is 89.6%; in series [9], 64.8%. Besides, the inhibition at 48 h, 10 µM in [7] is 13.4%.

With `C[N+]1([O-])CC[C@H](c2c(O)cc(O)c3c(=O)cc(/C=C/c4ccc(Cl)cc4Cl)oc23)[C@H](O)C1` (stereo partly drawn), the inhibition at 10 µM worked out at 41.2% with MIA PaCa-2 [1] and 54% in the series with HCT-116 [4]. Moreover, the figures for the inhibition in [5] and in series [9] were 49.6% and 43.2%, respectively. The inhibition at 48 h, 10 µM in [7] amounted to 18.2%.

As to `C[N+]1([O-])CC[C@H](c2c(O)cc(O)c3c(=O)cc(/C=C/c4c(F)cccc4Cl)oc23)[C@H](O)C1` (stereo partly drawn), the inhibition at 10 µM in the series on MIA PaCa-2 [1] came to 56.1%; with HCT-116 [4], 61.7%. For the same compound, the 50% growth inhibitory concentration (GI50) at 48 h in series [2] was > 100 µM. The results for the GI50 in the series on MIA PaCa-2 [3] and with HCT-116 [8] were 7.05 µM and 4.56 µM, respectively. Also, the half-maximal inhibitory concentration (IC50) at CDK9/cyclin T1 is 1.43 µM; in series [6] it was 5.14 µM. Also, in [5], the inhibition turned out to be 48.5%. For the same compound, in [7], the inhibition at 48 h, 10 µM was determined as 19.3%.

`COc1cc(O)c2c(=O)cc(/C=C/c3cccc(Cl)c3F)oc2c1[C@H]1CC[N+](C)([O-])C[C@H]1O` (stereo partly drawn): the inhibition at 10 µM turned out to be 52.7% in the series with MIA PaCa-2 [1] and 62.1% in the series with HCT-116 [4]. Further, the inhibition in series [5] is 47.5%; in series [9] it was 59.6%. Also, in series [7], the inhibition at 48 h, 10 µM was found to be 17.2%.

With `COc1cc(O)c2c(=O)cc(/C=C/c3c(F)ccc(Cl)c3F)oc2c1[C@H]1CC[N+](C)([O-])C[C@H]1OC` (stereo partly drawn), the inhibition at 10 µM was 39% in the series on MIA PaCa-2 [1] and 38.1% in the series with HCT-116 [4]. Further, the inhibition stood at 50.3% in series [5] and 17% in series [9]. Further, the inhibition at 48 h, 10 µM in series [7] was found to be 15.5%.

As for `COc1cc(O)c2c(=O)cc(/C=C/c3c(F)ccc(F)c3Cl)oc2c1[C@H]1CC[N+](C)([O-])C[C@H]1O` (stereo partly drawn), the values for the inhibition at 10 µM in the series on MIA PaCa-2 [1] and with HCT-116 [4] were 36.4% and 57.7%, respectively. Also, the inhibition in series [5] was found to be 51.4%; in series [9], 41.8%. For the same compound, the inhibition at 48 h, 10 µM in series [7] is 20%.

As for `C[N+]1([O-])CC[C@H](c2c(O)cc(O)c3c(=O)cc(/C=C/c4cc(Cl)cc(Cl)c4)oc23)[C@H](O)C1` (stereo partly drawn), the values for the inhibition at 10 µM in the series on MIA PaCa-2 [1] and in the series on HCT-116 [4] were 11.3% and 5.7%, respectively. Also, the inhibition was found to be 25.6% in [5] and 28% in series [9]. Further, the inhibition at 48 h, 10 µM in [7] came to 14.8%.
